Experimental data published in PubChem BioAssay (NCI).
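1) Cells in 96-well plates. 2) Compound, 48 h, 5 concentrations. 3) Linear interpolation between surrounding doses. 4) Unreached endpoint = highest concentration. GI50 is the concentration that inhibits growth by half. The concentration for full growth arrest is given as TGI.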

Legend:
Test in all cases: growth of human tumour cells (NCI), 48 h
CAKI-1 renal = tested on: CAKI-1 renal
KM12 colon = tested on: KM12 colon
M14 melanoma = tested on: M14 melanoma
NCI-H226 lung = tested on: NCI-H226 lung
PC-3 prostate = tested on: PC-3 prostate
SK-MEL-28 melanoma = tested on: SK-MEL-28 melanoma
SNB-75 CNS = tested on: SNB-75 CNS
SR leukemia = tested on: SR leukemia
UACC-62 melanoma = tested on: UACC-62 melanoma
HOP-92 NSCLC = tested on: HOP-92 NSCLC

Compound	GI50 (CAKI-1 renal) [µM]	TGI (CAKI-1 renal) [µM]	GI50 (KM12 colon) [µM]	TGI (KM12 colon) [µM]	GI50 (M14 melanoma) [µM]	TGI (M14 melanoma) [µM]	GI50 (NCI-H226 lung) [µM]	TGI (NCI-H226 lung) [µM]	GI50 (PC-3 prostate) [µM]	TGI (PC-3 prostate) [µM]	GI50 (SK-MEL-28 melanoma) [µM]	TGI (SK-MEL-28 melanoma) [µM]	GI50 (SNB-75 CNS) [µM]	TGI (SNB-75 CNS) [µM]	GI50 (SR leukemia) [µM]	TGI (SR leukemia) [µM]	GI50 (UACC-62 melanoma) [µM]	TGI (UACC-62 melanoma) [µM]	GI50 (HOP-92 NSCLC) [µM]	TGI (HOP-92 NSCLC) [µM]
Cn1cc(C2=C(c3cn(CCCCCO)c4ccccc34)C(=O)NC2=O)c2ccccc21	6.34	> 23.3	4.22	16.1	5.38	> 25	5.03	15.8	6.88	> 24.1	4.92	15.7	1.21	8.9	1.57	11	3.99	9.17	–	–
Nc1nn(C(=O)Nc2c(F)cccc2F)c2ccccc12	45.3	> 100	86.2	> 100	74.6	> 100	98.5	> 100	> 100	> 100	56.3	> 100	–	–	12.9	> 100	43.9	> 100	17.3	> 100
Cc1[nH]nc2ncc(C(=O)N3CCC[C@H]3c3ccc(Cl)cc3)cc12	> 100	> 100	51.6	> 100	> 100	> 100	64.1	> 100	45.6	> 100	> 100	> 100	84.4	> 100	–	–	44.1	> 100	80.7	> 100
C=C1C(=O)C2=CC1CCC(=O)C1(C)CCC(OC(C)=O)C(C)(C)C1CC2O (stereo not given)	–	6.2	–	15.9	–	10.4	–	31.9	–	28.8	–	> 46.4	–	24.8	–	–	–	5.96	–	20.3
CC(=O)N[C@@H](Cc1ccc(OP(=O)(O)O)cc1)C(=O)N[C@H]1CCC(=O)N2CCC[C@@H](C(=O)NCc3ccccc3)N2C1=O	> 25	> 25	> 25	> 25	> 25	> 25	> 25	> 25	> 25	> 25	> 25	> 25	> 25	> 25	> 25	> 25	> 25	> 25	–	–
O=C(O)CN(c1ccc(F)cc1)S(=O)(=O)c1ccccc1	–	> 100	–	> 100	–	> 100	–	> 100	–	–	–	> 100	–	> 100	–	–	–	> 100	–	> 100
O=C1C(=O)N(c2ccc(Cl)cc2)C(=O)C(=Nc2cccc3c(=O)[nH][nH]c(=O)c23)C1c1nc2ccccc2o1 (stereo not given)	–	> 100	–	> 100	–	> 100	–	> 100	–	–	–	> 100	–	> 100	–	> 100	–	> 100	–	> 100
CC(=O)OCCCC#CC#Cc1cccc(=O)o1	13.6	28.3	16	30.9	17.8	36.5	20.8	52.8	18.4	44.4	23.9	55.8	29.1	67.2	–	–	14.6	28.9	19.8	37.8
O=C1c2cc(F)ccc2-c2c1c1ccc([N+](=O)[O-])cc1c(=O)n2CCCBr	27.3	> 100	20.9	> 100	13.3	46.3	22.6	> 100	28.7	> 100	69.6	> 100	2.97	50.5	0.0885	1.74	22.8	77.7	–	–
COc1ccc(-c2[nH]nc(N)c2-c2cc(OC)c(OC)c(OC)c2)cc1	0.0506	47.3	0.0246	9.79	0.0281	3.46	0.512	> 100	0.0367	> 100	–	–	–	–	0.0285	> 42	0.0672	> 100	0.148	19.7
O=C(O)c1cn(C2CC2)c2cc(N3CCN(Cc4c(O)ccc5ccccc45)CC3)c(F)cc2c1=O	3.29	> 100	9.18	> 100	3.95	> 100	5.45	> 100	3.75	> 100	6.32	> 100	1.94	17.8	–	–	13.5	> 100	2.46	8.88
NCCSC(c1ccccc1)(c1ccccc1)c1ccccc1	3.51	16.1	1.84	4.82	0.354	1.15	4.79	22.7	1.36	11.5	1.64	3.34	1.73	5.31	0.34	1.82	–	–	–	–
O=c1cccc2n1CC1CNC[C@H]2C1	–	> 100	–	> 100	–	> 100	–	–	–	> 100	–	> 100	–	> 100	–	–	–	> 100	–	> 100
COc1cc(O)c2c(c1)C(=O)C1=C(C2=O)C(O)C[C@@](C)(O)C1 (stereo not given in full)	–	14	–	8.91	–	2.02	–	13.2	–	–	–	3.15	–	–	–	6.14	–	3.1	–	3.57
O=C(CSSCC(=O)Nc1ccc(Br)cc1)Nc1ccc(Br)cc1	–	50.3	–	55.4	–	32.7	–	31.7	–	–	–	32.4	–	40.1	–	37.9	–	29.3	–	34.1
Nc1ncn([C@H]2C[C@H](OP(=O)(O)OC[C@H]3O[C@@H](n4cnc5c(=O)[nH]c(N)nc54)C[C@@H]3O)[C@@H](CO)O2)c(=O)n1	> 100	> 100	–	–	> 100	> 100	> 100	> 100	–	–	> 100	> 100	> 100	> 100	> 100	> 100	> 100	> 100	> 100	> 100
